Reference: patent US9850225B2, “Compounds useful as immunomodulators” (BRISTOL-MYERS SQUIBB COMPANY, priority 2014, dated 2017)
pIC50: −log10 of the molar value.

What follows are compounds tested against PD-1/PD-L1 interaction (PD-1-Ig / PD-L1-His) (Homo sapiens (Human), UniProt Q9NZQ7) (assay: PD-1/PD-L1 Homogenous Time-Resolved Fluorescence (HTRF) binding assay). Conditions: PD-1/PD-L1 HTRF binding assay; numeric value; read-out: Range or IC50.
Description: The ability of the compounds of formula (I) to bind to PD-L1 was investigated using a PD-1/PD-L1 Homogenous Time-Resolved Fluorescence (HTRF) binding assay.
Homogenous Time-Resolved Fluorescence (HTRF) Binding Assay.
The interaction of PD-1 and PD-L1 can be assessed using soluble, purified preparations of the extracellular domains of the two proteins. The PD-1 and PD-L1 protein extracellular domains were expressed as fusion proteins with detection tags, for PD-1, the tag was the Fc portion of Immunoglobulin (PD-1-Ig) and for PD-L1 it was the 6 histidine motif (PD-L1-His). All binding studies were performed in an HTRF assay buffer consisting of dPBS supplemented with 0.1% […] bovine serum albumin and 0.05% (v/v) Tween-20. For the h/PD-L1-His binding assay, inhibitors were pre-incubated with PD-L1-His (10 nM final) for 15 m in 4 μl of assay buffer, followed by addition of PD-1-Ig (20 nM final) in 1 μl of assay buffer and further incubation for 15 m. HTRF detection was achieved using europium crypate-labeled anti-Ig (1 nM final) and allophycocyanin (APC) labeled anti-His (20 nM final). Antibodies were diluted in HTRF detection buffer and 5 μl was dispensed on top of the binding reaction. […] Additional binding assays were established between the human proteins PD-1-Ig/PD-L2-His (20 & 5 nM, respectively) and CD80-His/PD-L1-Ig (100 & 10 nM, respectively). […]

PD-1/PD-L1 interaction (PD-1-Ig / PD-L1-His), sequence (Q9NZQ7 other isoform, or with tags, fused parts or gaps): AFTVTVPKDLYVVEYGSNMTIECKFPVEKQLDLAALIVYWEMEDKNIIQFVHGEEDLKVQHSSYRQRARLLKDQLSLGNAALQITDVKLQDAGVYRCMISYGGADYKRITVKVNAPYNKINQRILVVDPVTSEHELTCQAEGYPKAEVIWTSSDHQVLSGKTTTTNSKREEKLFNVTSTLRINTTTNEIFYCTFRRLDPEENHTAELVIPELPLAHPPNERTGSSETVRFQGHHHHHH

| pIC50 | Structure (SMILES) |
| --- | --- |
| 8.34 | Cc1c(COc2ccc(CN[C@H](CO)C(=O)O)c(OCc3cccc(C#N)c3)c2)cccc1-c1ccccc1 [Example 1016, (R)-2-((2-((3-cyanobenzyl)oxy)-4-((2-methyl-[1,1′-biphenyl]-3-yl)methoxy)benzyl)amino)-3-hydroxypropanoic acid] |

Same assay, conditions: PD-1/PD-L1 HTRF binding assay; value given as range class; read-out: Range or IC50

| Structure (SMILES) | pIC50 |
| --- | --- |
| Cc1c(COc2ccc(CN[C@H](C(=O)O)[C@H](C)O)c(OCc3cccc(C#N)c3)c2)cccc1-c1ccccc1 [Example 1012, (2S,3S)-2-((2-((3-cyanobenzyl)oxy)-4-((2-methyl-[1,1′-biphenyl]-3-yl)methoxy)benzyl)amino)-3-hydroxybutanoic acid] | 7.00 to 8.00 |
| Cc1c(COc2ccc(CN[C@@H](C(=O)O)[C@@H](C)O)c(OCc3cccc(C#N)c3)c2)cccc1-c1ccccc1 [Example 1013, (2R,3R)-2-((2-((3-cyanobenzyl)oxy)-4-((2-methyl-[1,1′-biphenyl]-3-yl)methoxy)benzyl)amino)-3-hydroxybutanoic acid] | 8.00 to 9.22 |
| Cc1c(COc2ccc(CNC(C)(CO)C(=O)O)c(OCc3cccc(C#N)c3)c2)cccc1-c1ccccc1 (stereo not drawn) [Example 1014, 2-((2-((3-cyanobenzyl)oxy)-4-((2-methyl-[1,1′-biphenyl]-3-yl)methoxy)benzyl)amino)-3-hydroxy-2-methylpropanoic acid] | 8.00 to 9.22 |
| Cc1c(COc2ccc(CN[C@@H](C(=O)O)[C@H](C)O)c(OCc3cccc(C#N)c3)c2)cccc1-c1ccccc1 [Example 1015, (2R,3S)-2-((2-((3-cyanobenzyl)oxy)-4-((2-methyl-[1,1′-biphenyl]-3-yl)methoxy)benzyl)amino)-3-hydroxybutanoic acid] | 8.00 to 9.22 |
| Cc1c(COc2ccc(CNC(CO)C(=O)O)c(OCc3cccc(C#N)c3)c2)cccc1-c1ccccc1 (stereo not drawn) [Example 1017, 2-((2-((3-cyanobenzyl)oxy)-4-((2-methyl-[1,1′-biphenyl]-3-yl)methoxy)benzyl)amino)-3-hydroxypropanoic acid] | 8.00 to 9.22 |
| Cc1c(COc2ccc(CN[C@@H](CO)C(=O)O)c(OCc3cccc(C#N)c3)c2)cccc1-c1ccccc1 [Example 1018, (S)-2-((2-((3-cyanobenzyl)oxy)-4-((2-methyl-[1,1′-biphenyl]-3-yl)methoxy)benzyl)amino)-3-hydroxypropanoic acid] | 8.00 to 9.22 |
| Cc1c(COc2ccc(CN[C@@](C)(CO)C(=O)O)c(OCc3cccc(C#N)c3)c2)cccc1-c1ccccc1 [Example 1019, (S)-2-((2-((3-cyanobenzyl)oxy)-4-((2-methyl-[1,1′-biphenyl]-3-yl)methoxy)benzyl)amino)-3-hydroxy-2-methylpropanoic acid] | 8.00 to 9.22 |
| Cc1c(COc2ccc(CNC(CO)(C(=O)O)C(C)C)c(OCc3cccc(C#N)c3)c2)cccc1-c1ccccc1 (stereo not drawn) [Example 1020, 2-((2-((3-cyanobenzyl)oxy)-4-((2-methyl-[1,1′-biphenyl]-3-yl)methoxy)benzyl)amino)-2-(hydroxymethyl)-3-methylbutanoic acid] | 7.00 to 8.00 |
| Cc1c(COc2ccc(CN[C@](C)(CO)C(=O)O)c(OCc3cccc(C#N)c3)c2)cccc1-c1ccccc1 [Example 1023, (R)-2-((2-((3-cyanobenzyl)oxy)-4-((2-methyl-[1,1′-biphenyl]-3-yl)methoxy)benzyl)amino)-3-hydroxy-2-methylpropanoic acid] | 8.00 to 9.22 |
| CC(=O)NCCNCc1ccc(OCc2cccc(-c3ccccc3)c2C)cc1OCc1ccccc1 [Example 1024, N-(2-((2-(benzyloxy)-4-((2-methyl-[1,1′-biphenyl]-3-yl)methoxy)benzyl)amino)ethyl)acetamide] | 4.70 to 7.00 |
| CC(=O)NCCNCc1ccc(OCc2cccc(-c3ccccc3)c2C)cc1OCc1cccc(C)c1 [Example 1025, N-(2-((4-((2-methyl-[1,1′-biphenyl]-3-yl)methoxy)-2-((3-methylbenzyl)oxy)benzyl)amino)ethyl)acetamide] | 4.70 to 7.00 |
| CC(=O)NCCNCc1ccc(OCc2cccc(-c3ccccc3)c2C)cc1OCC(F)(F)F [Example 1026, N-(2-((4-((2-methyl-[1,1′-biphenyl]-3-yl)methoxy)-2-(2,2,2-trifluoroethoxy)benzyl)amino)ethyl)acetamide] | 4.70 to 7.00 |
| CCCOc1cc(OCc2cccc(-c3ccccc3)c2C)ccc1CNCCNC(C)=O [Example 1027, N-(2-((4-((2-methyl-[1,1′-biphenyl]-3-yl)methoxy)-2-propoxybenzyl)amino)ethyl)acetamide] | 4.70 to 7.00 |
| CC(=O)NCCNCc1ccc(OCc2cccc(-c3ccccc3)c2C)cc1OCc1cccc(C#N)c1 [Example 1028, N-(2-((2-((3-cyanobenzyl)oxy)-4-((2-methyl-[1,1′-biphenyl]-3-yl)methoxy)benzyl)amino)ethyl)acetamide] | 7.00 to 8.00 |

Second part, the compound after the results:

| pIC50 | Structure (SMILES) |
| --- | --- |
| 7.00 to 8.00 | CC(=O)NCCNCc1c(C)cc(OCc2cccc(-c3ccc4c(c3)OCCO4)c2C)cc1OCc1cccc(C#N)c1 [Example 1000, N-(2-(2-(3-cyanobenzyloxy)-4-(3-(2,3-dihydrobenzo[b][1,4]dioxin-6-yl)-2-methylbenzyloxy)-6-methylbenzylamino)ethyl)acetamide] |
| 8.00 to 9.22 | Cc1cc(OCc2cccc(-c3ccc4c(c3)OCCO4)c2C)cc(OCc2cccc(C#N)c2)c1CN[C@H](CO)C(=O)O [Example 1002, (R)-2-(2-(3-cyanobenzyloxy)-4-(3-(2,3-dihydrobenzo[b][1,4]dioxin-6-yl)-2-methylbenzyloxy)-6-methylbenzylamino)-3-hydroxypropanoic acid] |
| 8.00 to 9.22 | Cc1cc(OCc2cccc(-c3ccc4c(c3)OCCO4)c2C)cc(OCc2cccc(C#N)c2)c1CNC[C@@H](O)CC(=O)O [Example 1003, (S)-4-(2-(3-cyanobenzyloxy)-4-(3-(2,3-dihydrobenzo[b][1,4]dioxin-6-yl)-2-methylbenzyloxy)-6-methylbenzylamino)-3-hydroxybutanoic acid] |
| 8.00 to 9.22 | CC(=O)NCCNCc1c(C)cc(OCc2cccc(-c3ccc4c(c3)OCCO4)c2C)cc1OCc1cncc(C#N)c1 [Example 1005, N-(2-(2-((5-cyanopyridin-3-yl)methoxy)-4-(3-(2,3-dihydrobenzo[b][1,4]dioxin-6-yl)-2-methylbenzyloxy)-6-methylbenzylamino)ethyl)acetamide] |
| 8.00 to 9.22 | Cc1cc(OCc2cccc(-c3ccc4c(c3)OCCO4)c2C)cc(OCc2cncc(C#N)c2)c1CNC[C@@H](O)CC(=O)O [Example 1006, (S)-4-(2-((5-cyanopyridin-3-yl)methoxy)-4-(3-(2,3-dihydrobenzo[b][1,4]dioxin-6-yl)-2-methylbenzyloxy)-6-methylbenzylamino)-3-hydroxybutanoic acid] |
| 8.00 to 9.22 | Cc1cc(OCc2cccc(-c3ccc4c(c3)OCCO4)c2C)cc(OCc2cncc(C#N)c2)c1CN[C@H](CO)C(=O)O [Example 1007, (R)-2-(2-((5-cyanopyridin-3-yl)methoxy)-4-(3-(2,3-dihydrobenzo[b][1,4]dioxin-6-yl)-2-methylbenzyloxy)-6-methylbenzylamino)-3-hydroxypropanoic acid] |
| 8.00 to 9.22 | Cc1cc(OCc2cccc(-c3ccc4c(c3)OCCO4)c2C)cc(OCc2cncc(C#N)c2)c1CN[C@](C)(CO)C(=O)O [Example 1008, (R)-2-(2-((5-cyanopyridin-3-yl)methoxy)-4-(3-(2,3-dihydrobenzo[b][1,4]dioxin-6-yl)-2-methylbenzyloxy)-6-methylbenzylamino)-3-hydroxy-2-methylpropanoic acid] |
| 8.00 to 9.22 | Cc1cc(OCc2cccc(-c3ccc4c(c3)OCCO4)c2C)cc(OCc2cncc(C#N)c2)c1CN1CCCC[C@H]1C(=O)O [Example 1009, (S)-1-(2-((5-cyanopyridin-3-yl)methoxy)-4-(3-(2,3-dihydrobenzo[b][1,4]dioxin-6-yl)-2-methylbenzyloxy)-6-methylbenzyl)piperidine-2-carboxylic acid] |
| 8.00 to 9.22 | Cc1cc(OCc2cccc(-c3ccc4c(c3)OCCO4)c2C)cc(OCc2cncc(C#N)c2)c1CN[C@@](C)(CO)C(=O)O [Example 1010, (S)-2-(2-((5-cyanopyridin-3-yl)methoxy)-4-(3-(2,3-dihydrobenzo[b][1,4]dioxin-6-yl)-2-methylbenzyloxy)-6-methylbenzylamino)-3-hydroxy-2-methylpropanoic acid] |
| 8.00 to 9.22 | Cc1c(COc2ccc(CNC[C@@H](O)CC(=O)O)c(OCc3cccc(C#N)c3)c2)cccc1-c1ccccc1 [Example 1011, (S)-4-((2-((3-cyanobenzyl)oxy)-4-((2-methyl-[1,1′-biphenyl]-3-yl)methoxy)benzyl)amino)-3-hydroxybutanoic acid] |
| 8.00 to 9.22 | Cc1c(COc2ccc(CN[C@H](CO)CC(=O)O)c(OCc3cccc(C#N)c3)c2)cccc1-c1ccccc1 [Example 1021, (S)-3-((2-((3-cyanobenzyl)oxy)-4-((2-methyl-[1,1′-biphenyl]-3-yl)methoxy)benzyl)amino)-4-hydroxybutanoic acid] |
| 8.00 to 9.22 | Cc1c(COc2ccc(CN[C@@H](CO)CC(=O)O)c(OCc3cccc(C#N)c3)c2)cccc1-c1ccccc1 [Example 1022, (R)-3-((2-((3-cyanobenzyl)oxy)-4-((2-methyl-[1,1′-biphenyl]-3-yl)methoxy)benzyl)amino)-4-hydroxybutanoic acid] |
